In PubChem BioAssay (NCI):
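Five concentrations, 48 hours, 96-well plates. GI50: concentration for 50% inhibition of growth. TGI marks complete inhibition of growth.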

Assays:
Assay in all cases: NCI tumour cell line growth inhibition, 48 h
786-0 renal = test system: 786-0 renal
DU-145 prostate = test system: DU-145 prostate
HOP-92 NSCLC = test system: HOP-92 NSCLC
KM12 colon = test system: KM12 colon
MCF7 breast = test system: MCF7 breast
NCI-H522 lung = test system: NCI-H522 lung
OVCAR-3 ovarian = test system: OVCAR-3 ovarian
PC-3 prostate = test system: PC-3 prostate
RXF 393 renal = test system: RXF 393 renal
T-47D breast = test system: T-47D breast
TK-10 renal = test system: TK-10 renal
U251 CNS = test system: U251 CNS
UACC-62 melanoma = test system: UACC-62 melanoma
HCT-116 colon = test system: HCT-116 colon

Structure (SMILES)	TGI (786-0 renal)	TGI (DU-145 prostate)	TGI (HOP-92 NSCLC)	TGI (KM12 colon)	TGI (MCF7 breast)	TGI (NCI-H522 lung)	TGI (OVCAR-3 ovarian)	TGI (PC-3 prostate)	TGI (RXF 393 renal)	TGI (T-47D breast)	TGI (TK-10 renal)	TGI (U251 CNS)	TGI (UACC-62 melanoma)	TGI (HCT-116 colon)	GI50 (DU-145 prostate)	GI50 (HOP-92 NSCLC)	GI50 (MCF7 breast)	GI50 (T-47D breast)	GI50 (OVCAR-3 ovarian)
COCCOC(=O)c1c(C)n([O-])c2cc(Cl)c(Cl)cc2[n+]1=O	85.1 µM	25.8 µM	25.3 µM	25.7 µM	> 100 µM	54.6 µM	34.5 µM	> 100 µM	> 100 µM	61.2 µM	98.3 µM	> 100 µM	36.4 µM						
CN1CCc2[nH]c3ccccc3c2C1			> 100 µM	> 100 µM	> 100 µM	> 100 µM	> 100 µM		> 100 µM			> 100 µM	> 100 µM	> 100 µM					
COC1=C(OC)C(=O)C(Cc2c(Cl)nc3sc(C)cn23)=C(C)C1=O	38.8 µM	61 µM		27.8 µM	63.5 µM	30.2 µM	26.1 µM	34.9 µM	41.7 µM	> 100 µM	31.7 µM	36 µM	25.6 µM	55.9 µM					
CCCCCCCCCCCCCCCCCCOc1ccccc1CC(=O)OCC[N+]1(C)CCCCC1		9.61 µM	3.35 µM		4.97 µM					9.37 µM					3.02 µM	1.32 µM	2.07 µM	2.49 µM	
OC1(c2cccs2)c2cccc(Cl)c2C(O)(c2cccs2)c2c(Cl)cccc21 (stereo not drawn)	> 100 µM	> 100 µM	> 100 µM	> 100 µM	> 100 µM	> 100 µM	> 100 µM	> 100 µM	> 100 µM	> 100 µM	> 100 µM	> 100 µM	> 100 µM	> 100 µM					
CC(CCN)(CCN)[N+](=O)[O-]	> 100 µM	> 100 µM	> 100 µM	> 100 µM	> 100 µM	> 100 µM	> 100 µM	> 100 µM	> 100 µM	> 100 µM	> 100 µM	> 100 µM	> 100 µM	> 100 µM					
CCCCCCCCCCCCCCCCCCNC(=O)C(N)Cc1ccc(OCc2ccccc2)cn1 (stereo not drawn)	41.6 µM	43.4 µM	41.3 µM	35.5 µM	35.8 µM	38.5 µM	49.6 µM	27.7 µM	42.4 µM	50.7 µM	28.8 µM	35.4 µM	32.2 µM	38.2 µM					
CN1CCOC(c2ccc(Cl)cc2)O1 (stereo not drawn)			> 100 µM	> 100 µM	> 100 µM	> 100 µM	> 100 µM	> 100 µM	> 100 µM		> 100 µM	> 100 µM	> 100 µM						
CN(C)CCCSc1nc2ccccc2[nH]1	> 100 µM	> 100 µM	> 100 µM	> 100 µM	> 100 µM	> 100 µM	> 100 µM		> 100 µM	> 100 µM	> 100 µM	> 100 µM	> 100 µM	> 100 µM					
CN(CCCCCl)P(=O)(OCc1ccc([N+](=O)[O-])o1)OC[C@H]1O[C@@H](n2cc(F)c(=O)[nH]c2=O)C[C@@H]1O (stereo partly drawn)	> 80.1 µM	40.2 µM	20.3 µM	28.7 µM	4.45 µM	19.5 µM	19.1 µM	> 56.1 µM	17.4 µM	5.41 µM	> 79.8 µM	34.6 µM	6.48 µM	> 43.8 µM					
Cn1c2ccccc2n2c(N=O)c(-c3ccccc3)nc12	> 100 µM	> 100 µM	> 100 µM	69.8 µM	> 100 µM	> 100 µM	> 100 µM	> 100 µM	> 100 µM	> 100 µM	> 100 µM	> 100 µM	> 100 µM	> 100 µM					
O=C(Nc1ccc(Cl)cc1)c1cc2cc(N=Nc3ccccc3Cl)ccc2oc1=O			38.8 µM			53.2 µM	75.6 µM		> 100 µM		89.4 µM	51 µM	26.6 µM	23.3 µM					
COc1cc2c(c(O)c1OC)-c1c(cc(OC)c(OC)c1OC)CC(C)C(C)C2 (stereo not drawn)	> 100 µM	> 100 µM	> 100 µM	> 100 µM	> 100 µM	> 100 µM	> 100 µM	> 100 µM	> 100 µM	> 100 µM	> 100 µM	> 100 µM	> 100 µM	> 100 µM					
Nc1ncnc2c1ncn2C=C=CCO		> 100 µM	> 100 µM	> 100 µM	> 100 µM		> 100 µM	> 100 µM	> 100 µM	> 100 µM	> 100 µM	> 100 µM		> 100 µM					
Cc1ccc(S(=O)(=O)n2cc(-c3cc(C(F)(F)F)ccn3)c3cc(Br)ccc32)cc1	36.3 µM	> 100 µM	35.3 µM	> 100 µM	26 µM		30.7 µM	41.7 µM	45.1 µM	18.9 µM	44.8 µM	34.3 µM	33.3 µM	53 µM					
C=C1c2ccccc2C(=O)c2c1c1c(C(=O)OC)c(O)ccc1n2Cc1ccccc1	0.525 µM	0.745 µM	0.613 µM	1.7 µM	0.763 µM	0.795 µM	0.392 µM	1.56 µM	0.976 µM		1.55 µM	0.763 µM	1.12 µM	1.43 µM					
CC(C)=CCC/C(C)=C/CC/C(C)=C/CC/C(C)=C/C=C/C=C(\C)CC/C=C(\C)CC/C=C(\C)CCC=C(C)C	52.3 µM	> 100 µM	> 75.5 µM	63.3 µM	> 100 µM	31.4 µM	> 100 µM	> 100 µM	> 100 µM	> 100 µM	> 74.3 µM	> 100 µM	> 100 µM	> 100 µM					
O=C([O-])C[n+]1ccccc1	> 100 µM	> 100 µM	> 100 µM	> 100 µM	> 100 µM	> 100 µM	> 100 µM	> 100 µM	> 100 µM	> 100 µM	> 100 µM	> 100 µM	> 100 µM	> 100 µM					
C=CCN1C(=O)C=C(c2ccccc2)n2ncc3cccc1c32	> 100 µM	> 100 µM	> 100 µM	> 100 µM	> 100 µM	> 100 µM	> 100 µM	> 100 µM		> 100 µM	> 100 µM	> 100 µM	> 100 µM	> 100 µM					
O=S1(=O)N=C(SCc2ccccc2)N(c2ccccc2)c2ccncc21	> 100 µM	> 100 µM	82.7 µM	> 100 µM	> 100 µM	56.3 µM	> 100 µM	> 100 µM	> 100 µM	> 100 µM	> 100 µM	> 100 µM	> 100 µM	> 100 µM					
CCOc1ccc(NC(=O)C(=O)CC(=O)c2sc(NNC(C)=O)nc2C)cc1			> 100 µM	> 100 µM		> 100 µM			> 100 µM		> 100 µM	> 100 µM	> 100 µM	> 100 µM					
NN(CC(=O)O)CC(=O)O	> 100 µM	> 100 µM		> 100 µM	> 100 µM	> 100 µM	> 100 µM	> 100 µM		> 100 µM	> 100 µM	> 100 µM	> 100 µM	> 100 µM					
CCOc1cc(NC(C)=O)ccc1C(=O)NN1C(=O)C(Cl)C1c1ccccc1 (stereo not drawn)	28.1 µM	32.2 µM	31.7 µM	32.9 µM	22.9 µM	5.82 µM	34.2 µM	27.8 µM	33.5 µM	35.4 µM	31.2 µM		23.3 µM	38.9 µM					
Nc1ncnc2nc[nH]c12			> 250 µM	> 158 µM	> 162 µM	220 µM	> 250 µM		88 µM			> 250 µM	> 250 µM	> 250 µM					113 µM
